Test results taken from patent US10703755B2, “Substituted purine derivative” (SUMITOMO DAINIPPON PHARMA CO., LTD., priority 2016, dated 2020).

Target: human TLR7 (Homo sapiens (Human), UniProt Q9NYK1)
Experiment: Test for evaluating the inhibition of the activation of human TLR7 (SEAP reporter, TLR7/NF-κB/SEAPorter HEK293 cell)
Type: cell-based
Settings: R-848 200 nmol/L; for inhibitory effect against TLR7 in the test for evaluating inhibition of the activation of TLR7: SEAP activity, result in words; for IC50: SEAP reporter
Procedure, shortened: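 The readout is secreted alkaline phosphatase under NF-κB response-element control in TLR7/NF-κB/SEAPorter HEK293 cells, which stably express full-length human TLR7. Cells were plated at 5×10^4 per well and grown overnight at 37° C, 5% CO2, in DMEM/10% FBS/blasticidin.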

Sequence of human TLR7 (Q9NYK1 27-1049): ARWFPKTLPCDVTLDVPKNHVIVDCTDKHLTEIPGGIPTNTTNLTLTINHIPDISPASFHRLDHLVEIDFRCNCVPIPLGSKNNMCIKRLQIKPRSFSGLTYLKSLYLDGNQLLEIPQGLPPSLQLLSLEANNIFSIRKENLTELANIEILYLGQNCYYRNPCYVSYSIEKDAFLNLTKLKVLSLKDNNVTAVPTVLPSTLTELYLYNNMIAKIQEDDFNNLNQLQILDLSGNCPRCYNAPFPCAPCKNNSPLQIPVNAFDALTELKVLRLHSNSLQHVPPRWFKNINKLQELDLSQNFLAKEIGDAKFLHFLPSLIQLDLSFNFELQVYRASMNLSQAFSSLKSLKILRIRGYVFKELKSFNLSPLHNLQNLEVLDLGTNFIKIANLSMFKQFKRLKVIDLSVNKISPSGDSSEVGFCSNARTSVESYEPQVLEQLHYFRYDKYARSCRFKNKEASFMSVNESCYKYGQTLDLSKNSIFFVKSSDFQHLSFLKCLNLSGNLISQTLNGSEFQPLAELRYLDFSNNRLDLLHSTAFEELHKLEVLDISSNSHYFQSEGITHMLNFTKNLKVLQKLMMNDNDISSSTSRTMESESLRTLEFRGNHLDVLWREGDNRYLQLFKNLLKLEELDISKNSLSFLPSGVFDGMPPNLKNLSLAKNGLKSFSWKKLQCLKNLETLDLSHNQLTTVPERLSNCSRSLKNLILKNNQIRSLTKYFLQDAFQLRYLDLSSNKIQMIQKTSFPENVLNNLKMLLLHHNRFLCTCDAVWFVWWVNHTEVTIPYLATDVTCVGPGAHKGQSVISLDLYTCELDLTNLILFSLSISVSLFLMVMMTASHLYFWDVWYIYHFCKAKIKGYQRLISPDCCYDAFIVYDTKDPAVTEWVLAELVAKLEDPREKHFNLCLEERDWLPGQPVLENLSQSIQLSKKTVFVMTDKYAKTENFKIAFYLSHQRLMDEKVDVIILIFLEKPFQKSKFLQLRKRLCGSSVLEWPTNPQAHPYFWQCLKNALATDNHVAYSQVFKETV

IC50 | SMILES | inhibitory effect against TLR7 in the test for evaluating inhibition of the activation of TLR7
0.026 µM | COc1nc(C)c2nc(-c3cncc(F)c3)n(Cc3ccc(OC4CCN(C)CC4)cc3F)c2n1 [Example 411, 9-{2-fluoro-4-[(1-methylpiperidin-4-yl)oxy]benzyl}-8-(5-fluoropyridin-3-yl)-2-methoxy-6-methyl-9H-purine] | potent inhibitory effect against TLR7
0.016 µM | COc1nc(C)c2nc(-c3cncc(F)c3)n(Cc3ccc(O[C@H]4CCN(C)C4)cc3F)c2n1 [Example 414, 9-(2-fluoro-4-{[(3S)-1-methylpyrrolidin-3-yl]oxy}benzyl)-8-(5-fluoropyridin-3-yl)-2-methoxy-6-methyl-9H-purine] | potent inhibitory effect against TLR7
0.016 µM | COc1nc(C)c2nc(-c3cncc(F)c3)n(Cc3ccc(O[C@@H]4CCN(C)C4)cc3F)c2n1 [Example 415, 9-(2-fluoro-4-{[(3R)-1-methylpyrrolidin-3-yl]oxy}benzyl)-8-(5-fluoropyridin-3-yl)-2-methoxy-6-methyl-9H-purine] | potent inhibitory effect against TLR7
0.05 µM | COc1nc(C)c2nc(-c3cncc(F)c3)n(Cc3ccc(OC4CN(C)C4)cc3F)c2n1 [Example 416, 9-{2-fluoro-4-[(1-methylazetidin-3-yl)oxy]benzyl}-8-(5-fluoropyridin-3-yl)-2-methoxy-6-methyl-9H-purine] | potent inhibitory effect against TLR7
0.712 µM | COc1nc(C)c2nc(-c3cncc(F)c3)n(Cc3ccc(OCC4CN(C(=O)OC(C)(C)C)C4)cc3F)c2n1 [Example 419] | 
0.139 µM | COc1nc(C)c2nc(-c3cncc(F)c3)n(Cc3ccc(OCCN(C)C)cc3F)c2n1 [Example 420] | 
0.073 µM | COc1nc(C)c2nc(-c3cncc(F)c3)n(Cc3ccc(OCCCN(C)C)cc3F)c2n1 [Example 421] | potent inhibitory effect against TLR7
0.1 µM | CCOc1nc(C)c2nc(-c3cncc(F)c3)n(Cc3cnn(CC4CNCCO4)c3)c2n1 (centres unmarked) [Example 424] | 
0.093 µM | CCOc1nc(C)c2nc(-c3cncc(F)c3)n(Cc3cnn(CC4CNCCO4)c3)c2n1 (centres unmarked) [Example 425] | 
0.2 µM | CCOc1nc(C)c2nc(-c3cncc(F)c3)n(Cc3cnn(CC4COCCN4)c3)c2n1 (centres unmarked) [Example 426] | 
0.028 µM | CCOc1nc(C)c2nc(-c3cncc(F)c3)n(Cc3cnn(CC4COCCN4)c3)c2n1 (centres unmarked) [Example 427] | 
0.21 µM | CCOc1nc(C)c2nc(-c3cncc(F)c3)n(Cc3cnn(CC4CCNCC4)c3)c2n1 [Example 428] | 
0.549 µM | CCOc1nc(C)c2nc(-c3cncc(F)c3)n(Cc3cnc(CC4CCNCC4)cc3OC)c2n1 [Example 430] | 
0.008 µM | COc1nc(C)c2nc(-c3cncc(F)c3)n(Cc3ccc(C4CCNCC4)cc3F)c2n1 [Example 431] | potent inhibitory effect against TLR7
0.062 µM | COc1nc(C)c2nc(-c3cncc(F)c3)n(Cc3ccc(CC4CCNCC4)cc3F)c2n1 [Example 432] | potent inhibitory effect against TLR7
0.09 µM | COc1nc(C)c2nc(-c3cncc(F)c3)n(Cc3ccc(OCC4CNC4)cc3F)c2n1 [Example 434] | 
0.018 µM | COc1nc(C)c2nc(-c3cncc(F)c3)n(Cc3ccc(C4CCNC4)cc3F)c2n1 (centres unmarked) [Example 435] | 

SMILES | IC50 | inhibitory effect against TLR7 in the test for evaluating inhibition of the activation of TLR7
COc1nc(C)c2nc(-c3cncc(F)c3)n(Cc3ccc(O[C@@H]4CN5CCC4CC5)cc3F)c2n1 [Example 412, 9-{4-[(3S)-1-azabicyclo[2.2.2]oct-3-yloxy]-2-fluorobenzyl}-8-(5-fluoropyridin-3-yl)-2-methoxy-6-methyl-9H-purine] | 0.005 µM | potent inhibitory effect against TLR7
COc1nc(C)c2nc(-c3cncc(F)c3)n(Cc3ccc(O[C@H]4CN5CCC4CC5)cc3F)c2n1 [Example 413, 9-{4-[(3R)-1-azabicyclo[2.2.2]oct-3-yloxy]-2-fluorobenzyl}-8-(5-fluoropyridin-3-yl)-2-methoxy-6-methyl-9H-purine] | 0.009 µM | potent inhibitory effect against TLR7
COc1nc(C)c2nc(-c3cncc(F)c3)n(Cc3ccc(O[C@@H]4C[C@H]5CC[C@@H](C4)N5C)cc3F)c2n1 [Example 418, 9-(2-fluoro-4-{[(3-exo)-8-methyl-8-azabicyclo[3.2.1]oct-3-yl]oxy}benzyl)-8-(5-fluoropyridin-3-yl)-2-methoxy-6-methyl-9H-purine] | 0.019 µM | potent inhibitory effect against TLR7
COc1nc(C)c2nc(-c3cncc(F)c3)n(Cc3ccc(O[C@H]4C[C@H]5CC[C@@H](C4)N5)cc3F)c2n1 [Example 433] | 0.009 µM | potent inhibitory effect against TLR7
COc1nc(C)c2nc(-c3cncc(C#N)c3)n(Cc3ccc(O[C@H]4C[C@H]5CC[C@@H](C4)N5)cc3F)c2n1 [Example 436] | 0.037 µM | potent inhibitory effect against TLR7
COc1nc(C)c2nc(-c3cccnc3)n(Cc3ccc(O[C@H]4C[C@H]5CC[C@@H](C4)N5)cc3F)c2n1 [Example 437] | 0.016 µM | potent inhibitory effect against TLR7
COc1nc(C)c2nc(-c3ccc(C(N)=O)nc3)n(Cc3ccc(OC4CN5CCC4CC5)cc3F)c2n1 (centres unmarked) [Example 439] | 0.134 µM | 
COc1nc(C)c2nc(-c3ccc4ncccc4c3)n(Cc3ccc(OC4CN5CCC4CC5)cc3F)c2n1 (centres unmarked) [Example 440] | 0.084 µM | 
COc1nc(C)c2nc(-c3cccnn3)n(Cc3ccc(OC4CN5CCC4CC5)cc3F)c2n1 (centres unmarked) [Example 441] | 0.176 µM | 
COc1nc(C)c2nc(-c3cncc(F)c3)n(Cc3cc(C4CN5CCC4CC5)ccc3F)c2n1 (centres unmarked) [Example 443, 9-[5-(1-azabicyclo[2.2.2]oct-3-yl)-2-fluorobenzyl]-8-(5-fluoropyridin-3-yl)-2-methoxy-6-methyl-9H-purine] | 0.017 µM | potent inhibitory effect against TLR7
COc1nc(C)c2nc(-c3cncnc3)n(Cc3ccc([C@@H]4CN5CCC4CC5)cc3F)c2n1 [Example 444, 9-{4-[(3R)-1-Azabicyclo[2.2.2]oct-3-yl]-2-fluorobenzyl}-2-methoxy-6-methyl-8-(pyrimidin-5-yl)-9H-purine] | 0.098 µM | 
COc1nc(C)c2nc(-c3cncnc3)n(Cc3ccc([C@H]4CN5CCC4CC5)cc3F)c2n1 [Example 445, 9-{4-[(3S)-1-azabicyclo[2.2.2]oct-3-yl]-2-fluorobenzyl}-2-methoxy-6-methyl-8-(pyrimidin-5-yl)-9H-purine] | 0.021 µM | potent inhibitory effect against TLR7
